One molecule from publication PMC3441706 (PLoS ONE, 2012) can be followed below.

The test system of this test is pChk1 (Ser296). Nature of the test: Western Blot for pChk1 (Ser296) in HCT116 cells. It counts as cell-based, human. Conditions: HCT116, 150 nM, 0–48 hours. On the procedure:
Treated cells were directly lysed in NP40 cell lysis buffer (Invitrogen, Grand Island, NY, USA) containing protease and phosphatase inhibitors. Protein concentrations were measured colorimetrically (DC Protein Assay, Bio-Rad Laboratories, Hercules, CA, USA). Proteins were separated by SDS - polyacrylamide gel electrophoresis and blotted onto nitrocellulose membranes (Whatman™, Vienna, AUT). Equal loading was checked by Ponceau S (SERVA, Heidelberg, GER) staining. Bound antigen was visualized with the enhanced chemiluminescence detection system (Roche Diagnostics, Indianapolis, IN, USA). These procedures were performed according to the manufacturer’s protocols. Antibodies specific for the following proteins of interest were used: pChk1 (Ser296), p-p53 (Ser15), β-Tubulin and GAPDH were obtained from Cell Signaling Technology (Danvers, MA, USA) at 1∶1000 dilution. Secondary antibodies were peroxidase-tagged goat anti-rabbit or anti-mouse IgGs (Cell Signaling Technology) (1∶2000).
For orientation: Immunoblotting shows a protein as a band on a membrane.

Take `O=C(NNc1nc2cc(F)ccc2n2cccc12)c1cnccn1` [NVX-412, Pyrazine-2-carboxylic acid N’- (7-fluoro-pyrrolo[1,2-α]quinoxalin-4-yl)-hydrazide-oxalic acid co-crystal]: the “Chk1 Ser296 phosphorylation” value is reported as “increased after 4 hours”.
